System: MV-4-11 cells
Experiment: Gene expression microarray analysis (Affymetrix PrimeView) and GSEA
Format: cell-based, human
Parameters: RFU PODN (11730768_x_at) / Fold change /veh PODN (11730768_x_at) / RFU LINC00158 (11744669_a_at) / Fold change /veh LINC00158 (11744669_a_at) / RFU DUSP10 (11751237_a_at) / Fold change /veh DUSP10 (11751237_a_at) / RFU ID3 (11757404_x_at) / Fold change /veh ID3 (11757404_x_at) / RFU PLEKHG5 (11737974_s_at) / Fold change /veh PLEKHG5 (11737974_s_at) / RFU LRRC4B (11730491_at) / Fold change /veh LRRC4B (11730491_at) / RFU GIMAP4 (11747438_a_at) / Fold change /veh GIMAP4 (11747438_a_at) / RFU KRT8 (11758183_x_at) / Fold change /veh KRT8 (11758183_x_at) / RFU CNN1 (11734310_a_at) / Fold change /veh CNN1 (11734310_a_at) / RFU VPS37D (11726825_at) / Fold change /veh VPS37D (11726825_at) / RFU C10orf10 (11716522_x_at) / Fold change /veh C10orf10 (11716522_x_at) / RFU KIR2DL2 /// KIR2DL4 /// KIR2DL5A /// KIR2DL5B /// KIR2DS1 /// KIR2DS2 /// KIR2DS3 /// KIR2DS4 /// KIR3DL3 /// KIR3DL3 /// KIR3DS1 (11738374_at) / Fold change /veh KIR2DL2 /// KIR2DL4 /// KIR2DL5A /// KIR2DL5B /// KIR2DS1 /// KIR2DS2 /// KIR2DS3 /// KIR2DS4 /// KIR3DL3 /// KIR3DL3 /// KIR3DS1 (11738374_at) / RFU C1QL1 (11718748_at) / Fold change /veh C1QL1 (11718748_at) / RFU TMPRSS4 (11747572_a_at) / Fold change /veh TMPRSS4 (11747572_a_at) / RFU HAMP (11756126_x_at) / Fold change /veh HAMP (11756126_x_at) / RFU RNFT2 (11725882_a_at) / Fold change /veh RNFT2 (11725882_a_at) / RFU NR4A2 (11747474_a_at) / Fold change /veh NR4A2 (11747474_a_at) / RFU ABCC12 (11746883_a_at) / Fold change /veh ABCC12 (11746883_a_at) / RFU TMEM136 (11760407_x_at) / Fold change /veh TMEM136 (11760407_x_at) / RFU CLDN22 /// WWC2 (11732394_at) / Fold change /veh CLDN22 /// WWC2 (11732394_at) / RFU HLA-DPB1 (11760878_x_at) / Fold change /veh HLA-DPB1 (11760878_x_at) / RFU SPINT1 (11716480_a_at) / Fold change /veh SPINT1 (11716480_a_at) / RFU GAP43 (11754022_s_at) / Fold change /veh GAP43 (11754022_s_at) / RFU A4GNT (11735810_at) / Fold change /veh A4GNT (11735810_at) / RFU PRB3 (11715151_x_at) / Fold change /veh PRB3 (11715151_x_at) / RFU TUBB4B (11761932_at) / Fold change /veh TUBB4B (11761932_at) / RFU CAPN14 (11732068_a_at) / Fold change /veh CAPN14 (11732068_a_at) / RFU TMCC2 (11721928_a_at) / Fold change /veh TMCC2 (11721928_a_at) / RFU IRGQ (11745062_a_at) / Fold change /veh IRGQ (11745062_a_at) / RFU FAM174B (11720279_a_at) / Fold change /veh FAM174B (11720279_a_at) / RFU TMPRSS4 (11748680_a_at) / Fold change /veh TMPRSS4 (11748680_a_at) / RFU FAM212B (11763350_a_at) / Fold change /veh FAM212B (11763350_a_at) / RFU PLEKHG5 (11743358_a_at) / Fold change /veh PLEKHG5 (11743358_a_at) / RFU ZSCAN30 (11745921_a_at) / Fold change /veh ZSCAN30 (11745921_a_at) / RFU CMKLR1 (11741424_a_at) / Fold change /veh CMKLR1 (11741424_a_at) / RFU LOC101060620 /// MAPK8IP1 (11723275_at) / Fold change /veh LOC101060620 /// MAPK8IP1 (11723275_at) / RFU SPTSSB (11747773_x_at) / Fold change /veh SPTSSB (11747773_x_at) / RFU PRSS12 (11739890_at) / Fold change /veh PRSS12 (11739890_at) / RFU BIN1 (11741810_x_at) / Fold change /veh BIN1 (11741810_x_at) / RFU WNT11 (11732464_a_at) / Fold change /veh WNT11 (11732464_a_at) / RFU C10orf10 (11716521_a_at) / Fold change /veh C10orf10 (11716521_a_at) / RFU C5orf56 (11738089_at) / Fold change /veh C5orf56 (11738089_at) / RFU CYB561 (11721691_x_at) / Fold change /veh CYB561 (11721691_x_at) / RFU ANKRD19P (11752326_a_at) / Fold change /veh ANKRD19P (11752326_a_at) / RFU OR2T12 /// OR2T33 /// OR2T8 (11738714_s_at) / Fold change /veh OR2T12 /// OR2T33 /// OR2T8 (11738714_s_at) / RFU VCAN (11748164_a_at) / Fold change /veh VCAN (11748164_a_at) / RFU JSRP1 (11732532_at) / Fold change /veh JSRP1 (11732532_at) / RFU KRTAP10-11 (11738290_x_at) / Fold change /veh KRTAP10-11 (11738290_x_at) / RFU MYO3A (11730013_a_at) / Fold change /veh MYO3A (11730013_a_at) / RFU EBF3 (11725865_a_at) / Fold change /veh EBF3 (11725865_a_at) / RFU CAMK2N1 (11719241_x_at) / Fold change /veh CAMK2N1 (11719241_x_at) / RFU C5orf56 (11738088_a_at) / Fold change /veh C5orf56 (11738088_a_at) / RFU OLFML3 (11715873_a_at) / Fold change /veh OLFML3 (11715873_a_at) / RFU LOC100653217 /// NTM (11731650_a_at) / Fold change /veh LOC100653217 /// NTM (11731650_a_at) / RFU MAPK11 (11762145_a_at) / Fold change /veh MAPK11 (11762145_a_at) / RFU FIZ1 (11724087_x_at) / Fold change /veh FIZ1 (11724087_x_at) / RFU OASL (11726364_x_at) / Fold change /veh OASL (11726364_x_at) / RFU SOX15 (11748057_x_at) / Fold change /veh SOX15 (11748057_x_at) / RFU CD79A (11719716_a_at) / Fold change /veh CD79A (11719716_a_at) / RFU HIST1H1D (11736915_at) / Fold change /veh HIST1H1D (11736915_at) / RFU CASKIN2 (11723855_a_at) / Fold change /veh CASKIN2 (11723855_a_at) / RFU LOC730098 (11760151_x_at) / Fold change /veh LOC730098 (11760151_x_at) / RFU OR4N2 (11742367_at) / Fold change /veh OR4N2 (11742367_at) / RFU PRRT2 (11749266_a_at) / Fold change /veh PRRT2 (11749266_a_at) / RFU SNX32 (11753110_a_at) / Fold change /veh SNX32 (11753110_a_at) / RFU CDHR5 (11726645_a_at) / Fold change /veh CDHR5 (11726645_a_at) / RFU RCAN1 (11760418_a_at) / Fold change /veh RCAN1 (11760418_a_at) / RFU FAM167A (11723789_a_at) / Fold change /veh FAM167A (11723789_a_at) / RFU FAM26E (11764081_at) / Fold change /veh FAM26E (11764081_at) / RFU ISYNA1 (11749810_s_at) / Fold change /veh ISYNA1 (11749810_s_at) / RFU ACY1 (11761880_at) / Fold change /veh ACY1 (11761880_at) / RFU 11764098_at / Fold change /veh 11764098_at / RFU SAMD14 (11745864_x_at) / Fold change /veh SAMD14 (11745864_x_at) / RFU NPB (11741838_a_at) / Fold change /veh NPB (11741838_a_at) / RFU TMPRSS6 (11731388_a_at) / Fold change /veh TMPRSS6 (11731388_a_at) / RFU KRTAP10-2 (11738614_at) / Fold change /veh KRTAP10-2 (11738614_at) / RFU ARHGAP8 /// PRR5-ARHGAP8 (11727945_x_at) / Fold change /veh ARHGAP8 /// PRR5-ARHGAP8 (11727945_x_at) / RFU KRTAP5-7 /// NADSYN1 (11734609_at) / Fold change /veh KRTAP5-7 /// NADSYN1 (11734609_at) / RFU RASL12 (11751679_a_at) / Fold change /veh RASL12 (11751679_a_at) / RFU CDKN2B (11736163_a_at) / Fold change /veh CDKN2B (11736163_a_at) / RFU PRF1 (11729649_at) / Fold change /veh PRF1 (11729649_at) / RFU, ZNF638 /// ZNF638-IT1 / Fold change vs veh, ZNF638 /// ZNF638-IT1 / RFU, PANK3 / Fold change vs veh, PANK3 / RFU, SH3YL1 / Fold change vs veh, SH3YL1 / RFU, ZEB2 / Fold change vs veh, ZEB2 / RFU, NRIP1 / Fold change vs veh, NRIP1 / RFU, PTTG1IP / Fold change vs veh, PTTG1IP / RFU, CAPN2 / Fold change vs veh, CAPN2 / RFU, MED14 / Fold change vs veh, MED14 / RFU, SNORA58 / Fold change vs veh, SNORA58 / RFU, C1orf63 / Fold change vs veh, C1orf63 / RFU, LRRFIP1 / Fold change vs veh, LRRFIP1 / RFU, NDUFAF7 / Fold change vs veh, NDUFAF7 / RFU, SLC12A2 / Fold change vs veh, SLC12A2 / RFU, IBTK / Fold change vs veh, IBTK / RFU, ESF1 / Fold change vs veh, ESF1 / Fold change vs veh, TMEM50B / RFU, TAOK1 / Fold change vs veh, TAOK1 / RFU, ACBD3 / Fold change vs veh, ACBD3 / RFU, TMA16 / Fold change vs veh, TMA16 / RFU, RWDD3 / Fold change vs veh, RWDD3 / RFU, BCAT1 / Fold change vs veh, BCAT1 / RFU, EDEM3 / Fold change vs veh, EDEM3 / RFU, TMEM33 / Fold change vs veh, TMEM33 / RFU, WDR75 / Fold change vs veh, WDR75 / RFU, AHCTF1 / Fold change vs veh, AHCTF1 / RFU, TFRC / Fold change vs veh, TFRC / RFU, ZDHHC17 / Fold change vs veh, ZDHHC17 / RFU, NOM1 / Fold change vs veh, NOM1 / RFU, ARL8B / Fold change vs veh, ARL8B / RFU, ZBTB11 / Fold change vs veh, ZBTB11 / RFU, TAMM41 / Fold change vs veh, TAMM41 / RFU, KIAA1704 /// LOC100996395 / Fold change vs veh, KIAA1704 /// LOC100996395 / RFU, ING1 / Fold change vs veh, ING1 / RFU, TRMT61B / Fold change vs veh, TRMT61B / RFU, FUBP3 / Fold change vs veh, FUBP3 / RFU, TP53 / Fold change vs veh, TP53 / RFU, TNKS2 / Fold change vs veh, TNKS2 / RFU, ZFP14 / Fold change vs veh, ZFP14 / RFU, ACTR2 / Fold change vs veh, ACTR2 / RFU, PPP3R1 / Fold change vs veh, PPP3R1 / RFU, PIK3R1 / Fold change vs veh, PIK3R1 / RFU, HNRNPA1 / Fold change vs veh, HNRNPA1 / RFU, RNF170 / Fold change vs veh, RNF170 / RFU, ZNF28 / Fold change vs veh, ZNF28 / RFU, RNGTT / Fold change vs veh, RNGTT / RFU, OGT / Fold change vs veh, OGT / RFU, BRD1 / Fold change vs veh, BRD1 / RFU, MARS / Fold change vs veh, MARS / RFU, ZNF655 / Fold change vs veh, ZNF655 / RFU, FAHD1 / Fold change vs veh, FAHD1 / RFU, BDP1 / Fold change vs veh, BDP1 / RFU, LRRCC1 / Fold change vs veh, LRRCC1 / RFU, ARID1A / Fold change vs veh, ARID1A / RFU, ZNF146 / Fold change vs veh, ZNF146 / RFU, ZNF330 / Fold change vs veh, ZNF330 / RFU, GPN3 / Fold change vs veh, GPN3 / RFU, C9orf123 / Fold change vs veh, C9orf123 / RFU, N4BP2L2 / Fold change vs veh, N4BP2L2 / RFU, ARFIP1 / Fold change vs veh, ARFIP1 / RFU, FAM179B / Fold change vs veh, FAM179B / RFU, BCL10 / Fold change vs veh, BCL10 / RFU, UHRF1BP1L / Fold change vs veh, UHRF1BP1L / RFU, BET1 / Fold change vs veh, BET1 / RFU, CNOT2 / Fold change vs veh, CNOT2 / RFU, ZNF268 / Fold change vs veh, ZNF268 / Fold change vs veh, ZNF507 / RFU, DGCR2 / Fold change vs veh, DGCR2 / RFU, WDSUB1 / Fold change vs veh, WDSUB1 / Fold change vs veh, HSP90B1 /// MIR3652 / RFU, ADSS / Fold change vs veh, ADSS / RFU, GK / Fold change vs veh, GK / RFU, ZNF148 / Fold change vs veh, ZNF148 / RFU, TAF9 / Fold change vs veh, TAF9 / RFU, SLC1A5 / Fold change vs veh, SLC1A5 / RFU, SLMO2 / Fold change vs veh, SLMO2 / RFU, ABCC4 / Fold change vs veh, ABCC4 / RFU, LOC101060439 /// RAP1B / Fold change vs veh, LOC101060439 /// RAP1B / RFU, RFX7 / Fold change vs veh, RFX7 / RFU, GTPBP10 / Fold change vs veh, GTPBP10 / RFU, CNEP1R1 / Fold change vs veh, CNEP1R1 / RFU, BIVM-ERCC5 /// ERCC5 / Fold change vs veh, BIVM-ERCC5 /// ERCC5 / RFU, ILF3 / Fold change vs veh, ILF3 / RFU 11762660_at / Fold change /veh 11762660_at / RFU VCAN (11757783_s_at) / Fold change /veh VCAN (11757783_s_at) / RFU DDX43 (11728927_at) / Fold change /veh DDX43 (11728927_at) / RFU KRT8 (11758188_x_at) / Fold change /veh KRT8 (11758188_x_at) / RFU NKD1 (11759106_at) / Fold change /veh NKD1 (11759106_at) / RFU SRD5A1 (11742802_a_at) / Fold change /veh SRD5A1 (11742802_a_at) / RFU TPSAB1 /// TPSB2 (11721975_s_at) / Fold change /veh TPSAB1 /// TPSB2 (11721975_s_at) / RFU GSTM3 (11746129_a_at) / Fold change /veh GSTM3 (11746129_a_at) / RFU IL23R (11737362_x_at) / Fold change /veh IL23R (11737362_x_at) / RFU TMEM51 (11727254_a_at) / Fold change /veh TMEM51 (11727254_a_at) / RFU PIWIL2 (11732686_x_at) / Fold change /veh PIWIL2 (11732686_x_at) / RFU ORM1 (11744905_x_at) / Fold change /veh ORM1 (11744905_x_at) / RFU CCDC152 (11743942_at) / Fold change /veh CCDC152 (11743942_at) / RFU ECM1 (11717891_a_at) / Fold change /veh ECM1 (11717891_a_at) / RFU IL23R (11748794_a_at) / Fold change /veh IL23R (11748794_a_at) / RFU TNFAIP8L3 (11732012_x_at) / Fold change /veh TNFAIP8L3 (11732012_x_at) / RFU MBOAT4 (11741988_at) / Fold change /veh MBOAT4 (11741988_at) / RFU 11764193_at / Fold change /veh 11764193_at / RFU TMEM53 (11763286_at) / Fold change /veh TMEM53 (11763286_at) / RFU MAGEB2 (11727129_at) / Fold change /veh MAGEB2 (11727129_at) / RFU TMEM200A (11744735_a_at) / Fold change /veh TMEM200A (11744735_a_at) / RFU CCDC152 (11751479_a_at) / Fold change /veh CCDC152 (11751479_a_at) / RFU FAM211A (11726209_a_at) / Fold change /veh FAM211A (11726209_a_at) / RFU RGS16 (11746705_a_at) / Fold change /veh RGS16 (11746705_a_at) / RFU VCAN (11755009_s_at) / Fold change /veh VCAN (11755009_s_at) / RFU RHOB (11743442_s_at) / Fold change /veh RHOB (11743442_s_at) / RFU RGS16 (11720943_a_at) / Fold change /veh RGS16 (11720943_a_at) / RFU RGS16 (11720944_at) / Fold change /veh RGS16 (11720944_at) / RFU, VPS4B / Fold change vs veh, VPS4B / RFU, CREB1 / Fold change vs veh, CREB1 / RFU, DNAJC13 / Fold change vs veh, DNAJC13 / RFU, GNAQ / Fold change vs veh, GNAQ / RFU, CDK5R1 / Fold change vs veh, CDK5R1 / RFU, ZRANB3 / Fold change vs veh, ZRANB3 / RFU, CUL4A / Fold change vs veh, CUL4A / RFU, CCNY / Fold change vs veh, CCNY / RFU, UFL1 / Fold change vs veh, UFL1 / RFU, COG3 / Fold change vs veh, COG3 / RFU, DIAPH2 / Fold change vs veh, DIAPH2 / RFU, SKA2 / Fold change vs veh, SKA2 / RFU, AFF3 / Fold change vs veh, AFF3 / RFU, LMF1 / Fold change vs veh, LMF1 / RFU, IPO11 / Fold change vs veh, IPO11 / RFU, DFFB / Fold change vs veh, DFFB / RFU, FOXP1 / Fold change vs veh, FOXP1 / RFU, CARD8 / Fold change vs veh, CARD8 / RFU, STRN3 / Fold change vs veh, STRN3 / RFU, ADK / Fold change vs veh, ADK / RFU, RASSF2 / Fold change vs veh, RASSF2 / RFU, WIPF1 / Fold change vs veh, WIPF1 / RFU, LARP1B / Fold change vs veh, LARP1B / RFU, RASA1 / Fold change vs veh, RASA1 / RFU, RB1 / Fold change vs veh, RB1 / RFU, PPFIA1 / Fold change vs veh, PPFIA1 / RFU, MAT2A / Fold change vs veh, MAT2A / RFU, CCT5 / Fold change vs veh, CCT5 / RFU, WDR92 / Fold change vs veh, WDR92 / RFU, CUX1 / Fold change vs veh, CUX1 / RFU, TTC7A / Fold change vs veh, TTC7A / RFU, TMEM135 / Fold change vs veh, TMEM135 / RFU, DEPTOR / Fold change vs veh, DEPTOR / RFU, CPM / Fold change vs veh, CPM / RFU, DNAJB6 / Fold change vs veh, DNAJB6 / RFU, CACNA2D3 / Fold change vs veh, CACNA2D3 / RFU, DTX4 / Fold change vs veh, DTX4 / RFU, TFCP2 / Fold change vs veh, TFCP2 / RFU, GMCL1 /// GMCL1P1 / Fold change vs veh, GMCL1 /// GMCL1P1 / RFU, AEBP2 / Fold change vs veh, AEBP2 / RFU, SNHG1 /// SNORD22 /// SNORD25 /// SNORD26 /// SNORD27 /// SNORD28 /// SNORD29 /// SNORD31 / Fold change vs veh, SNHG1 /// SNORD22 /// SNORD25 /// SNORD26 /// SNORD27 /// SNORD28 /// SNORD29 /// SNORD31 / Fold change (Aza/veh), C12orf56 (ProbeSet 11735607_a_at) / Fold change (ACY-1035/veh), C12orf56 (ProbeSet 11735607_a_at) / Fold change (Aza/veh), FGFR1OP (ProbeSet 11751329_s_at) / Fold change (ACY-1035/veh), FGFR1OP (ProbeSet 11751329_s_at) / Fold change (Aza/veh), VPS36 (ProbeSet 11739960_a_at) / Fold change (ACY-1035/veh), VPS36 (ProbeSet 11739960_a_at) / RFU SYPL1 (11715823_x_at) / Fold change /veh SYPL1 (11715823_x_at) / RFU IGFBP7 (11715501_s_at) / Fold change /veh IGFBP7 (11715501_s_at) / RFU REEP3 (11722064_at) / Fold change /veh REEP3 (11722064_at) / RFU IGLL1 (11728026_x_at) / Fold change /veh IGLL1 (11728026_x_at): dose or concentration left out as unconfirmed
Conditions: ProbeSet 11723930_at; LIST D

For Nc1ncn([C@@H]2O[C@H](CO)[C@@H](O)[C@H]2O)c(=O)n1 [azacitidine], the “Fold change vs veh, CCT5” value was 0.69.

— publication PMC5218480 (PLoS ONE, 2017)
